Measurements from paper doi:10.1101/2021.06.10.447852v1 (biorxiv, 2021).

The molecules below were run on EZH2 (methyltransferase component of PRC2) (assay: cells). Settings: Homo sapiens, HEK-293T, 48 h, read-out: Cell IC50 (H3K27me3) (nM).

SMILES | IC50 [nM]
CSc1cc(C)[nH]c(=O)c1CN1CCN(C)c2c(Cl)cc(-c3c(C)noc3C)c(Cl)c2C1=O [compound 21, TDI-11904] | 6
CSc1cc(C)n(C)c(=O)c1CN1CCN(C)c2c(Cl)cc(-c3c(C)noc3C)c(Cl)c2C1=O [compound 22, 22] | 1550
CSc1cc(C)n(C)c(=O)c1CN1CCNc2c(Cl)cc(-c3c(C)noc3C)c(Cl)c2C1=O [compound 23, 23] | 167
